# According to patent US6943196B1, “NF-κB inhibitor comprising phenylmethyl benzoquinone as the active ingredient” (Daiichi Suntory Pharma Co., Ltd., priority 1998, dated 2005):
# pIC50: −log10 of the molar value.
# Experiments:
# [1] = test system: TNF-α production; experiment: TNF-α production of LPS-stimulated RAW264.7 cells (ELISA); assay type: cell-based; settings: Mus musculus, LPS (10 μg/ml) for 4 hours
# From the text: (§1) When various cells are stimulated with LPS, NF-κB is activated which results in the expression and induction of proteins represented by […] and TNF-α, and thereby the cells start to produce NO and TNF-α.
# (§2) The inhibitory activity of the compounds shown in the Examples is expressed as an IC50 value.
# [2] = test system: NO production; experiment: NO production of LPS-stimulated RAW264.7 cells (Griess' method); assay type: cell-based; settings: Mus musculus, LPS (10 μg/ml), NO in culture medium after 24 hours
# From the text: as §1
# The Griess' method utilizing a diazo reaction has been known as a method for indirectly knowing that a cell actually produces NO. In the Griess' method, the Griess' reagent in which naphthylethylenediamine and sulfanilic acid have been mixed is reacted with NO2 ion in the culture medium, and the color development thereof is measured by absorbance at 540 nm. The amount of NO accumulated in the cell culture medium after 24 hours was measured in this method with a result that the production of NO released from LPS (10 μg/ml)-stimulated RAW264.7 cells (ATCC, TIB-71) derived from macrophage is suppressed by the compound obtained in Example 4 (FIG. 4A).
# as §2
Compound,pIC50 [1],pIC50 [2]
COC1=C(OC)C(=O)C(Cc2ccc(CCC(=O)Nc3ccc(OC)c(OC)c3)cc2)=C(C)C1=O [Example 103],4.51,4.51
COC1=C(OC)C(=O)C(Cc2ccc(CCC(=O)Nc3ccc(OC)cc3)cc2)=C(C)C1=O [Example 94],4.96,5.05
COC1=C(OC)C(=O)C(Cc2ccc(CCC(=O)N[C@@H](C)c3ccccc3)cc2)=C(C)C1=O [Example 120],4.96,5.15
COC1=C(OC)C(=O)C(Cc2ccc(CCC(=O)N3CCC[C@H]3C(N)=O)cc2)=C(C)C1=O [Example 106],4.60,4.77
"COC1=C(OC)C(=O)C(Cc2ccc(CC(=O)N3CCOCC3)cc2)=C(C)C1=O [Example 53, N-[4-(5,6-dimethoxy-3-methyl-1,4-benzoquinon-2-ylmethyl)phenylacetyl]morpholine]",4.72,4.72
COC1=C(OC)C(=O)C(Cc2ccc(CCC(=O)N3CCCC(C)C3)cc2)=C(C)C1=O (stereo not shown) [Example 85],4.59,4.68
"COC1=C(OC)C(=O)C(Cc2ccc(CCC(=O)N3CCSCC3)cc2)=C(C)C1=O [Example 4, N-[3-[4-(5,6-dimethoxy-3-methyl-1,4-benzoquinon-2-ylmethyl)phenyl]propionyl]thiomorpholine]",4.68,4.68
COC1=C(OC)C(=O)C(Cc2ccc(CCC(=O)N3CC(C)CC(C)C3)cc2)=C(C)C1=O (stereo not shown) [Example 137],4.70,4.70
COC1=C(OC)C(=O)C(Cc2ccc(CCC(=O)N3CCC(C(C)=O)(c4ccccc4)CC3)cc2)=C(C)C1=O [Example 168],4.77,4.77
COC1=C(OC)C(=O)C(Cc2ccc(CCC(=O)N3CCC(C)CC3)cc2)=C(C)C1=O [Example 81],4.89,4.89
"COC1=C(OC)C(=O)C(Cc2ccc(CCC(=O)NC(C)C)cc2)=C(C)C1=O [Example 9, N-[3-[4-(5,6-dimethoxy-3-methyl-1,4-benzoquinon-2-ylmethyl)phenyl]propionyl]isopropylamine]",4.80,5.00
"COC1=C(OC)C(=O)C(Cc2cccc(CCC(=O)NC(C)C)c2)=C(C)C1=O [Example 35, N-[3-[3-(5,6-dimethoxy-3-methyl-1,4-benzoquinon-2-ylmethyl)phenyl]propioyl]isopropylamine]",4.72,4.72
"COC1=C(OC)C(=O)C(Cc2ccc(CCC(=O)N3CCCCC3)cc2)=C(C)C1=O [Example 7, N-[3-[4-(5,6-dimethoxy-3-methyl-1,4-benzoquinon-2-ylmethyl)phenyl]propionyl]piperidine]",4.66,4.82
COC1=C(OC)C(=O)C(Cc2ccc(CCC(=O)N3CCCCC3C)cc2)=C(C)C1=O (stereo not shown) [Example 83],5.05,5.22
